# Measured values as given in US10493087B2, “Sialylation-increasing therapies for diseases associated with oxidative stress” (THE UNITED STATES OF AMERICA, AS REPRESENTED BY THE …, priority 2015, dated 2019).
# What was measured:
# Gne−/−hGNED176V-Tg mice = assay: Muscle contractile properties analysis (gastrocnemius); type: in vivo; settings: for Peak isometric twitch force (Pt) / Maximum tetanic force (Po): gastrocnemius; for Peak isometric twitch force (Pt): untreated 167.1±6.0; for Maximum tetanic force (Po): untreated 526.7±24.1; for Specific isometric force (Pt/CSA): untreated 16.3±2.6; for Specific tetanic force (Po/CSA): untreated 51.4±8.9
# Procedure: N-Acetylcysteine (NAC) Treatment Protocols: […] were randomly divided into high dose NAC (n=13), low dose NAC (n=13), or untreated control (n=17) groups. […] There was no difference in water consumption between mice receiving NAC supplemented water or regular drinking water. […] Three littermates groups (high dose NAC; n=7, low dose NAC; n=7, or untreated control; n=6) were treated in the same way. Muscle contractile properties analysis: The contractile properties of the gastrocnemius and tibialis anterior muscles were measured according to previous protocol ([…] et al., Nat Med. 2009; 15:690-695; […] et al., Physiol Genomics. 2008; 35:106-115). After the mouse was anesthetized with intraperitoneal sodium pentobarbital (50 mg per kg body weight), the entire skeletal muscles were isolated along with the proximal bone of origin intact. Then the muscle was mounted in a vertical chamber and connected to a force-displacement and length servo system. […] With the muscle held at L0 and duration changed to 3 ms, the force developed during trains of stimulation pulses (10 to 100 Hz) was recorded and the maximum absolute tetanic force (Po) was determined. Absolute force was normalized with the physiologic cross-sectional area (CSA; muscle weight divided by the product of L0 and 1.066 g/cm^3) to obtain specific force (Pt/CSA and Po/CSA).
# [1] = Safety of long term NAC treatment (side effects, serum chemistry); type: in vivo, mice
# Source text: N-Acetylcysteine (NAC) Treatment Protocols: Gne^−/−hGNED176V-Tg mice were randomly divided into high dose NAC (n=13), low dose NAC (n=13), or untreated control (n=17) groups. For NAC (Sigma) treatment, mice were provided ad libitum access to drinking water containing high dose NAC (1.0% w/v) or low dose NAC (0.1% w/v), which gives an average dose of 1.5 g/kg for high dose group and of 0.15 g/kg for low dose group per day. There was no difference in water consumption between mice receiving NAC supplemented water or regular drinking water. Treatment was initiated from the average age of 26 weeks until the mice reached at least 55 weeks. Three littermates groups (high dose NAC; n=7, low dose NAC; n=7, or untreated control; n=6) were treated in the same way.
smiles,measurement,setting,value
"CC(=O)N[C@@H](CS)C(=O)O [NAC, N-acetylcysteine]",Peak isometric twitch force (Pt),Gne−/−hGNED176V-Tg mice; HD group 1.5 g/kg per day,228.5±15.0 mN
same,Maximum tetanic force (Po),Gne−/−hGNED176V-Tg mice; HD group 1.5 g/kg per day,687.5±52.4 mN
same,Specific isometric force (Pt/CSA),Gne−/−hGNED176V-Tg mice; HD group 1.5 g/kg per day,22.5±5.1 mN/mm^2
same,Specific tetanic force (Po/CSA),Gne−/−hGNED176V-Tg mice; HD group 1.5 g/kg per day,67.5±15.7 mN/mm^2
same,Peak isometric twitch force (Pt),Gne−/−hGNED176V-Tg mice; LD group 0.15 g/kg per day,233.6±10.0 mN
same,Maximum tetanic force (Po),Gne−/−hGNED176V-Tg mice; LD group 0.15 g/kg per day,735.0±43.0 mN
same,Specific isometric force (Pt/CSA),Gne−/−hGNED176V-Tg mice; LD group 0.15 g/kg per day,23.4±3.3 mN/mm^2
same,Specific tetanic force (Po/CSA),Gne−/−hGNED176V-Tg mice; LD group 0.15 g/kg per day,73.5±13.5 mN/mm^2
same,Increase of absolute contractile forces (Pt and Po) in littermate mice,Gne−/−hGNED176V-Tg mice; littermate control mice with NAC supplement,not statistically significant
same,Adverse side effects,[1]; long term treatment of mice,No adverse side effects
same,Alkaline phosphatase,[1]; treated vs untreated mice,no difference
same,Blood urea nitrogen,[1]; treated vs untreated mice,no difference
same,Serum aspartate aminotransferase,[1]; treated vs untreated mice,no difference
